Laboratory results: patent US20120190707A1, “SELECTIVE INHIBITORS OF AKT AND METHODS OF USING SAME” (priority 2008, published 2012)

Legend:
Abl1 = Abl1 (Homo sapiens, UniProt P00519); assay: Non related protein kinase Abl1 inhibition; assay type: biochemical; settings: concentrations up to 100 μM
Description: In addition, we tested our compounds against a non related protein kinase, Abl1 (22), which is a tyrosine kinase under investigation in our laboratory.
We recently reported on the direct evaluation of a number of in silico approaches to identify AKT inhibitors (Forino et al., 2005) We achieved experimental validation of selected compounds using both a fluorescence-based enzymatic assay and a substrate phosphorylation assay involving the protein GSK-3 (Forino et al., 2005). Briefly, the virtual docking approach consists of selecting the top 4,000 out of 50,000 docked compounds, using a variety of computational docking approaches, including a consensus score among two different scoring functions (Forino et al., 2005). Of those, 100 compounds were selected based on ranking and favorable docking geometry.

AKT = AKT expression by western blot in MCF7 breast cancer cells; assay type: cell-based; settings: MCF7, 5 and 10 micro.M
Description: (§1) (A) MeWo melanoma cells growing in 60 mm plates were treated with the indicated concentration of the inhibitor for 4 h before proteins were prepared for western blot analysis using the indicated antibodies. Level of beta.actin was monitored as a control for protein loading. (B) Experiment was performed as indicated in panel A, except that cells were harvested after 24 h for analysis of cell death using trypan blue staining. (C) Melanoma (MeWo), prostate cancer (PC3) and breast cancer (MCF7) cells were treated with BI-69A11 at the indicated concentrations; levels of AKT phosphorylation or expression were assessed 4 h later. The level of beta.actin used as a control for protein loading. (D) Experiment was performed as indicated in panel C, except that cells were harvested after 4 h for analysis of cell death using trypan blue staining.
For western blotting techniques, cells were lysed in RIPA buffer containing 50 mM TrisHCl pH7.4, 150 mM NaCl, 2 mM EDTA, 1% NP-40, 0.1% SDS. The protein concentration was estimated using the Coomassie Protein assay kit (Thermo Scientific, Rockford, Ill., USA). Equal concentrations of cell lysate (30-50 ug) were resolved on a 10% polyacrylamide gel and transferred onto Nitrocellulose membrane (GE Amersham). Membranes were blocked for 1-2 hours in either 3% BSA or 5% nonfat dried milk in Tris-buffered saline containing 0.05% Tween 20. […]

MeWo melanoma cells = assay: Cell death by trypan blue staining, MeWo; assay type: cell-based
Description: as §1
To evaluate the effectiveness of BI-69A11 on melanoma cells we assessed the effect of different concentrations on AKT phosphorylation in MeWO cells.
(§2) For the proliferation assays, cells were treated as described above. However, instead of scraping cells into the serum-free medium, floating cells were collected in a 15 mL centrifuge tube whereas adherent cells trypsinized gently. The total cell population was pooled and counted on a hemocytometer after staining with Trypan Blue.

melanocytes = assay: AKT phosphorylation and toxicity in cultured melanocytes; assay type: cell-based; settings: data not shown
c-Jun = assay: Levels of HSP90 client protein c-Jun; assay type: cell-based; settings: data not shown
Description: (§3) Among cellular proteins implicated in the regulation of AKT levels is the cellular chaperone HSP90. Inhibition of HSP90 chaperone function, as commonly achieved by the geldanamycin antibiotic, interferes with the conformational maturation and refolding of its associated proteins, thereby promoting their degradation (Munster et al., 2002; Neckers and Neckers, 2003). […] Thus we assessed whether association of AKT with HSP90 could be affected by BI-69A11. Immunoprecipitation of AKT from melanoma cells identified HSP90 in the immunoprecipitated material. Such association was however abolished following treatment with the BI-69A11 inhibitor (FIG. 6C). […] To this end, we also performed the experiment in the presence of the proteasome inhibitor MG132.

p53 = assay: Levels of HSP90 client protein p53; assay type: cell-based; settings: data not shown
Description: as §3

UACC903 melanoma cells = assay: Cell death by trypan blue exclusion in UACC903 compared with 29-1 cells; assay type: cell-based, human
Description: (A) 903 and 29-1 cells were exposed to different concentrations of BI-69A11 or UV light as a positive control and the percentage of cell death determined by trypan blue exclusion assay. (B) PARP cleavage was determined in 903 and 29-1 cells after treatment with BI-69A11 at 2, 4 and 6 hours.
Since AKT activity is important for tumor cell survival, its inhibition is expected to result in cell death. We thus monitored cell death in melanoma cells that were treated with BI-69A11.
as §2, with “Blue. The percentage of dead cells was determined by calculating the number of dead cells/total cells X 100. This experiment was performed two times each in triplicate.” for “Blue.”

ATM-CHK2 axis = assay: ATM and CHK2 phosphorylation (DNA damage response) western analysis in UACC903 cells; assay type: cell-based, human
Description: UACC903 melanoma cells were exposed to vehicle control or 10 μM BI-69A11 for 1 h prior to γ-irradiation (10 Gray). Cells were harvested at the indicated time points post-irradiation and whole cell lysates were subjected to western analysis for phosphorylated ATM, total ATM, phosphorylated Chk2, and PLCγ (as loading control).
FIG. 14 is an assessment of BI-69A11 analogs on Chk2 phosphorylation. UACC903 melanoma cells were exposed to vehicle control, 10 μM BI-69A11, or 10 μM analog for 2 h. Cells were harvested and whole cell lysates were subjected to western analysis for phosphorylated Chk2 and PLCγ (as loading control).
To accomplish this, we g-irradiated vehicle- or BI69A11-treated cells and examined ATM and CHK2 phosphorylation, a well-characterized surrogate of activation (FIG. 13). In vehicle-treated cells, g-irradiation led to the robust phosphorylation of ATM and CHK2.
We next examined the panel of BI-69A11 analogs for their ability to stimulate CHK2 phosphorylation in UACC903 cells (FIG. 14).
For western blotting techniques, cells were lysed in RIPA buffer containing 50 mM TrisHCl pH7.4, 150 mM NaCl, 2 mM EDTA, 1% NP-40, 0.1% SDS. The protein concentration was estimated using the Coomassie Protein assay kit (Thermo Scientific, Rockford, Ill., USA). Equal concentrations of cell lysate (30-50 ug) were resolved on a 10% polyacrylamide gel and transferred onto Nitrocellulose membrane (GE Amersham). Membranes were blocked for 1-2 hours in either 3% BSA or 5% nonfat dried milk in Tris-buffered saline containing 0.05% Tween 20. Primary antibody incubations were performed overnight at 4° C. with shaking. The blots were washed followed by incubation with a secondary antibody incubation for 1 hour at room temperature. After washing, the blots were scanned on the Odyssey Licor scanner at the appropriate wavelength and the image was captured using the Odyssey software.

Chain of Abl1 (P00519 whole entry, species assumed): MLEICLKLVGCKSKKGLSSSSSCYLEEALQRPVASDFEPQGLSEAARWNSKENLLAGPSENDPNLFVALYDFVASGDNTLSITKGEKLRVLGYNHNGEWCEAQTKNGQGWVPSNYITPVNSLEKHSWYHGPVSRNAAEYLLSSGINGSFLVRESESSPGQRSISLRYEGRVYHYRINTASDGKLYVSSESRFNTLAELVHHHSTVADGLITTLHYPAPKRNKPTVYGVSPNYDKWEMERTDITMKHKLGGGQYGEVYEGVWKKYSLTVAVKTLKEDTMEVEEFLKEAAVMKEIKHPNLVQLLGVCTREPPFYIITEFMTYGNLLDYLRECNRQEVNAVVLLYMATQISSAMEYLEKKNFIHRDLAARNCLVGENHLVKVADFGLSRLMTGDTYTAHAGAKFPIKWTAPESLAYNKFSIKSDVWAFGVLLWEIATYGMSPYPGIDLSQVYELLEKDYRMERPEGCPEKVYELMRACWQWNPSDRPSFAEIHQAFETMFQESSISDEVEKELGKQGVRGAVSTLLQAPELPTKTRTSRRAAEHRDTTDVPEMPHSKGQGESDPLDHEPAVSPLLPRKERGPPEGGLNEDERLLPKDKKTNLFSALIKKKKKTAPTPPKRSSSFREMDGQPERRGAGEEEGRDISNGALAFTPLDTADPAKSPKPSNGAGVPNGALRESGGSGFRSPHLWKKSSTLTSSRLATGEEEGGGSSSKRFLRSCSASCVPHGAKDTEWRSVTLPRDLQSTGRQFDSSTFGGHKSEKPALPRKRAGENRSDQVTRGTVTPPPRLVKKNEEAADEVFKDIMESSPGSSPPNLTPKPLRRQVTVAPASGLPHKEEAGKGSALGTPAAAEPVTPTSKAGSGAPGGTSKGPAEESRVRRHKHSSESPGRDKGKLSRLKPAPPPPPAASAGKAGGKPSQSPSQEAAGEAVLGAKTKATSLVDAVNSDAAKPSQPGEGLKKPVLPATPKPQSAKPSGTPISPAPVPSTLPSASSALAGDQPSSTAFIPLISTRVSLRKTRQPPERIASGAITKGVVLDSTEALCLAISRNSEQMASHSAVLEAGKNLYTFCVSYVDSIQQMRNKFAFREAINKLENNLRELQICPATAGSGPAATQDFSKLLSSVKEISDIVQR

O=C(/C=C/c1nc2ccccc2[nH]1)c1c(O)nc2ccc(Cl)cc2c1-c1ccccc1 [Compound 2, (E)-3-(3-(1H-benzo[d]imidazol-2-yl)acryloyl)-6-chloro-4-phenylquinolin-2(1H)-one]
inhibition of Abl1 (Abl1): did not affect
AKT protein levels (AKT): not affected
cell death (MeWo melanoma cells; 3 micro.M, within 24 hours): about 60%
cell death (MeWo melanoma cells; 5 micro.M, within 4 hours): about 25%
AKT phosphorylation in growth factor-maintained melanocytes (melanocytes; coincided with cell death): efficient inhibition of AKT phosphorylation
toxic effect on melanocytes deprived of growth factors (melanocytes; deprived for 24 h): no longer elicit toxic effect
c-Jun protein levels (c-Jun): did not affect
level of p53 (p53): limited effect
cell death, PTEN mutant melanoma cells compared with 29-1 cells (UACC903 melanoma cells; FIG. 7A): more pronounced on PTEN mutant melanoma cells
cell death of melanoma cells (UACC903 melanoma cells; concentrations as low as 1 micro.M, within 24 hours): effective cell death
ATM and CHK2 phosphorylation in the absence of radiation (ATM-CHK2 axis; 10 μM): leads to ATM and CHK2 phosphorylation
ATM or CHK2 phosphorylation following g-irradiation (ATM-CHK2 axis; 10 μM for 1 h prior to γ-irradiation (10 Gray)): did not inhibit
CHK2 phosphorylation / activation (ATM-CHK2 axis; 10 μM for 2 h): induced the activation of CHK2 to a similar extent
